Several values for one entry are separate records, joined by “and”; a condition that tells them apart may be missing. Identical values can stand only once.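 Test compounds were applied to cells in 96-well plates for 48 hours at 5 doses. The concentration for 50% growth inhibition is given as GI50. Definition used: TGI = concentration required for complete inhibition of growth.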
How the values were obtained:
Assay in all cases: DTP human tumour cell line panel, 48 h
ACHN renal = system: ACHN renal
MCF7 breast = system: MCF7 breast
UACC-62 melanoma = system: UACC-62 melanoma
K-562 leukemia = system: K-562 leukemia
M14 melanoma = system: M14 melanoma
SNB-19 CNS = system: SNB-19 CNS
UACC-257 melanoma = system: UACC-257 melanoma
LOX IMVI melanoma = system: LOX IMVI melanoma
OVCAR-8 ovarian = system: OVCAR-8 ovarian
CAKI-1 renal = system: CAKI-1 renal

| Structure (SMILES) | TGI (ACHN renal) | TGI (MCF7 breast) | TGI (UACC-62 melanoma) | TGI (K-562 leukemia) | TGI (M14 melanoma) | TGI (SNB-19 CNS) | TGI (UACC-257 melanoma) | TGI (LOX IMVI melanoma) | TGI (OVCAR-8 ovarian) | TGI (CAKI-1 renal) | GI50 (M14 melanoma) | GI50 (SNB-19 CNS) | GI50 (UACC-257 melanoma) | GI50 (LOX IMVI melanoma) | GI50 (ACHN renal) | GI50 (MCF7 breast) | GI50 (UACC-62 melanoma) | GI50 (K-562 leukemia) | GI50 (OVCAR-8 ovarian) | GI50 (CAKI-1 renal) |
| --- | --- | --- | --- | --- | --- | --- | --- | --- | --- | --- | --- | --- | --- | --- | --- | --- | --- | --- | --- | --- |
| O=C1CSC2(CCN(CCCN3c4ccccc4Sc4ccc(Cl)cc43)CC2)N1 | 23.7 µM | 18.5 µM | 23.7 µM | 16.8 µM | 20.6 µM | 26 µM | 22 µM | 16.6 µM | 23.8 µM | 25 µM |  |  |  |  |  |  |  |  |  |  |
| O=C(CSC1=NCCN1)c1ccccc1 | > 100 µM | > 100 µM | > 100 µM | > 100 µM | > 100 µM | > 100 µM | > 100 µM | > 100 µM | > 100 µM | > 100 µM |  |  |  |  |  |  |  |  |  |  |
| COC1C(O)=C2C(=O)OC(C)(O)/C=C/C=C\C=C/C=C/C(c3ccccc3)NC(=O)/C=C/C=C/C=C/C=C/C2(C)C1O (stereo not drawn) | 0.0323 µM and 0.119 µM | 0.0273 µM and 0.169 µM | 0.258 µM | > 100 µM | 0.447 µM and 0.19 µM | 0.239 µM and 0.112 µM | 0.17 µM and 0.31 µM | 0.16 µM and 0.234 µM | 0.0241 µM and 0.146 µM | 0.125 µM and 0.0222 µM | 0.0536 µM | 0.0133 µM | 0.0838 µM | 0.0264 µM |  |  |  |  |  |  |
| CC1(C)N=C(N)N=C(N)N1c1cccc(CSc2ccccc2)c1 | > 100 µM | > 100 µM | > 100 µM | > 100 µM | 11.2 µM | > 100 µM | > 100 µM | > 100 µM | > 100 µM | > 100 µM |  |  |  |  |  |  |  |  |  |  |
| COc1ccc2nc3c([N+](=O)[O-])ccc4c3c(c2c1)NCCN4C | 5.92 µM | 8.75 µM | 2.88 µM | > 100 µM | 2.8 µM | 8.77 µM | 10.1 µM | 4.71 µM | 14.9 µM | 9.13 µM |  |  |  |  |  |  |  |  |  |  |
| Cc1c2cc[n+](C)cc2c(C)c2c1[nH]c1ccccc12 | > 100 µM | 21.9 µM and 39.5 µM | 22.5 µM and 27.4 µM | 43.1 µM and 40.2 µM | > 100 µM | 1.09 µM and 1.3 µM | 37.5 µM and 43.2 µM | 48.3 µM and 27.4 µM | 27.4 µM and 18.1 µM | 58.8 µM and 27.7 µM |  |  |  |  |  |  |  |  |  |  |
| CC(NCCS(=O)(=O)O)C(=O)O (stereo not drawn) |  | > 100 µM | > 100 µM | > 100 µM |  | > 100 µM | > 100 µM | > 100 µM | > 100 µM | > 100 µM |  |  |  |  |  |  |  |  |  |  |
| CCCCCCCCCC[C@@H](O)[C@@H]1CC[C@@H]([C@@H]2CC[C@@H]([C@@H](O)CCCCCCCCCCC(O)CC3=CC(C)OC3=O)O2)O1 (stereo partly drawn) | > 10 µM | > 10 µM | > 10 µM | > 10 µM | > 10 µM |  | > 10 µM | > 10 µM | > 10 µM |  |  |  |  |  |  |  |  |  |  |  |
| c1ccc(N=NNNc2ccc(-c3nc4ccccc4[nH]3)cc2)cc1 | > 100 µM | 69.9 µM |  | 94.6 µM | > 100 µM | > 100 µM | > 100 µM | > 100 µM | > 100 µM | > 100 µM |  |  |  |  |  |  |  |  |  |  |
| CN(C)Cc1cc(C(=O)O)cc(CN(C)C)c1O | > 100 µM | > 100 µM | > 100 µM | > 100 µM | > 100 µM | > 100 µM | > 100 µM | > 100 µM | > 100 µM | > 100 µM |  |  |  |  |  |  |  |  |  |  |
| COc1ccc(-c2cn3ccnc3c(-c3ccc4ncn(C5CCCCC5)c4c3)n2)cc1 | > 100 µM | > 100 µM | > 100 µM | > 100 µM | > 100 µM | > 100 µM | > 100 µM | > 100 µM | > 100 µM | > 100 µM | 0.612 µM | 0.836 µM | > 100 µM | 0.74 µM | 0.692 µM | 0.64 µM | 0.434 µM | 0.422 µM | 3.16 µM | 0.757 µM |
| C=C[C@H]1CN2CC[C@H]1C[C@@H]2[C@@H](O)c1ccnc2ccccc12 | > 100 µM | > 100 µM | > 100 µM | > 100 µM | > 100 µM | > 100 µM | > 100 µM | > 100 µM | > 100 µM | > 100 µM |  |  |  |  |  |  |  |  |  |  |
| O=C(O)C(Cc1cccs1)C(=O)O | > 100 µM | > 100 µM | > 100 µM | > 100 µM | > 100 µM | > 100 µM | > 100 µM | > 100 µM | > 100 µM | > 100 µM |  |  |  |  |  |  |  |  |  |  |
| Nc1nc(N)c2ncn(CC(CO)CC(c3ccccc3)P(=O)(O)O)c2n1 (stereo not drawn) | > 100 µM |  | > 100 µM | > 100 µM | 10.4 µM | > 100 µM | > 100 µM | > 100 µM | > 100 µM | > 100 µM |  |  |  |  |  |  |  |  |  |  |
| CN(C)c1ccc(C(c2ccc(N(C)C)cc2)c2ccc([N+](=O)[O-])cc2)cc1 | > 100 µM | > 100 µM | > 100 µM | > 100 µM | > 100 µM | > 100 µM | > 100 µM | > 100 µM | > 100 µM | > 100 µM |  |  |  |  |  |  |  |  |  |  |
| N#CC(c1ccccc1)c1cccc2ccccc12 (stereo not drawn) | > 100 µM | 92.4 µM | > 100 µM | > 100 µM | 96.4 µM | > 100 µM | 67.3 µM | 50.8 µM | 76.4 µM | 52.1 µM |  |  |  |  |  |  |  |  |  |  |
